Our source for the remaining activity, Ki and GI50 values is patent US11111245B2, “Derivatives of N-cycloalkyl/heterocycloalkyl-4-(imidazo[1,2-a]pyridine)pyrimidin-2-amine as therapeutic agents” (Aucentra Therapeutics Pty Ltd, priority 2017, dated 2021).

Molecules are shown by their SMILES. Some results are limits rather than exact numbers.

One test addresses CDK4/D1 (Homo sapiens, UniProt P11802). The test is described as follows: ADP Glo Kinase assay CDK4/D1. Type of test: biochemical. To be noted: CDK4D1; compound at 10 μM; read-out: residual activity (%) at 10 μM CDK4D1. An outline of the steps: (§1)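 Other CDKs and further kinases were profiled externally by radiometric assay. In-house ADP Glo assays covered CDK4/D1 and CDK6/D3 (RB-CTF substrate, pH 7.5 Tris buffer with MgCl2, DTT, BSA) and CDK9/T1 (RBER-IRStide substrate), 40 min at 37° C.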

The target in a further test is CDK9/T1 (Homo sapiens, UniProt P50750). The test is described as follows: ADP Glo Kinase assay CDK9/T1. Type of test: biochemical. To be noted: CDK9T1; read-out: CDK inhibition, Ki (μM) CDK9T1. An outline of the steps:
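CDK4/D1 and CDK6/D3 were run in […] Tris pH 7.5, 20 mM MgCl2, 0.4 mM DTT, 0.1 mg/ml BSA with RB-CTF substrate; CDK9/T1 used RBER-IRStide. ATP-started reactions ran 40 min at 37° C, with ADP Glo luminescence read-out. IC50 came from 4-parameter fits; Ki from Km (ATP) and IC50.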

Test [1] deals with T1, CDKs and other kinases (Homo sapiens, UniProt P06493).
T1 construct: other: CDK1B; residual activity (%) at 10 μM CDK1B; compound at 10 μM
T1 sequence (P06493 whole entry): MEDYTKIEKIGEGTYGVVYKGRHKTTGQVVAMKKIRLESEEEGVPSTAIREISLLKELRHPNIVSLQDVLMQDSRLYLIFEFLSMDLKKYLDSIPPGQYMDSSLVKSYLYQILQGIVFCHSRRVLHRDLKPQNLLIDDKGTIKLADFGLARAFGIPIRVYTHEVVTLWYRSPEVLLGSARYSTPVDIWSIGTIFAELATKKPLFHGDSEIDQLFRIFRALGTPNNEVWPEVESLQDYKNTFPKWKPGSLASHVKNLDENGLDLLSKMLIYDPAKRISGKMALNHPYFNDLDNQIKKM
The test is described as follows: Radiometric kinase assay (Eurofins Pharma Discovery or Reaction Biology Corporation Kinase Profiler). The note with it: CDK1B; for remaining activity at 10 µM: compound at 10 μM, read-out: residual activity (%) at 10 μM CDK1B; for Ki: read-out: CDK inhibition, Ki (μM) CDK1B. Type of test: biochemical. An outline of the steps: as §1

Test [2] deals with T2, CDKs and other kinases (Homo sapiens, UniProt P24941).
T2 construct: other: CDK2A; residual activity (%) at 10 μM CDK2A; compound at 10 μM
Described as above. It is filed as biochemical. The note with it: CDK2A; for remaining activity at 10 µM: compound at 10 μM, read-out: residual activity (%) at 10 μM CDK2A. In short, it runs like this:
as §1

The target in test [3] is T3, CDKs and other kinases (Homo sapiens, UniProt P50613).
T3 construct: other: CDK7H; residual activity (%) at 10 μM CDK7H; compound at 10 μM
T3 sequence (P50613 whole entry): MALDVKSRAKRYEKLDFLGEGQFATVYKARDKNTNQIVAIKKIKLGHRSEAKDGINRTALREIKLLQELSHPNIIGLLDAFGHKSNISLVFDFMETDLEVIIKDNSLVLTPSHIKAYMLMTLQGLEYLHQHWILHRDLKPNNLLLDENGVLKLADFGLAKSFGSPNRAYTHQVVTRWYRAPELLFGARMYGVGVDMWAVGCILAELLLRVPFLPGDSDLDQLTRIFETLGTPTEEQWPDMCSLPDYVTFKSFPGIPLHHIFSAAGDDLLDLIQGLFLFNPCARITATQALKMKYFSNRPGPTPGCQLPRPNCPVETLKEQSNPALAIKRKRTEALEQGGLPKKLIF
The test is described as above. It is filed as biochemical. To be noted: CDK7H; for Ki: read-out: CDK inhibition, Ki (μM) CDK7H; for remaining activity at 10 µM: compound at 10 μM, read-out: residual activity (%) at 10 μM CDK7H. In short, it runs like this: as §1

In another test the test system is leukemia cell lines. The test is described as follows: Resazurin cell viability assay on leukemia cell lines (72 h growth inhibition, GI50). The note with it: Homo sapiens, MV4-11 cells. It is filed as cell-based. The method, then:
Compounds from Example 1 were subjected to a standard MTT (3-(4,5-dimethylthiazol-2-yl)-2,5-diphenyltetrazolium bromide) and resazurin assays on solid tumour cell lines and leukemia cell lines, respectively, as previously reported (Wang S et al., J Med Chem 47:1662-1675, 2004 and Diab S. et al. CheMedChem 9:962-972, 2014). Compound concentrations required to inhibit 50% of cell growth (GI50) were calculated using non-linear regression analysis.

Sequence of CDK4/D1 (P11802 whole entry): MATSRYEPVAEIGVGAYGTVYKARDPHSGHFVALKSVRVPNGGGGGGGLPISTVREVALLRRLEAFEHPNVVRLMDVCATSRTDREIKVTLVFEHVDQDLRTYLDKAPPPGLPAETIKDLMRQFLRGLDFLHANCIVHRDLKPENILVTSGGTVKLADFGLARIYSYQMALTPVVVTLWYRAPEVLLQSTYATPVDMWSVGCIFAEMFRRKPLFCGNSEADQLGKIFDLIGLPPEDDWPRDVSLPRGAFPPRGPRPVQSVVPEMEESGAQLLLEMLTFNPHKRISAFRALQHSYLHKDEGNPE
Sequence of CDK4/D1 (P24385 whole entry partner): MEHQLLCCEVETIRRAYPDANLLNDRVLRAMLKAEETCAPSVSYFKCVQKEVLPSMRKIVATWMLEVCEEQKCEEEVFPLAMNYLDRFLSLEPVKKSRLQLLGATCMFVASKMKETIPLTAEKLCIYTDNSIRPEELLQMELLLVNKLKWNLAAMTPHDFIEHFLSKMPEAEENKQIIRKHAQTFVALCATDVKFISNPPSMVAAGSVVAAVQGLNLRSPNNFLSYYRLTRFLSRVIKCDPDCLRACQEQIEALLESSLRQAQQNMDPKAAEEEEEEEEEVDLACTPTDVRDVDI
Sequence of CDK9/T1 (P50750 whole entry): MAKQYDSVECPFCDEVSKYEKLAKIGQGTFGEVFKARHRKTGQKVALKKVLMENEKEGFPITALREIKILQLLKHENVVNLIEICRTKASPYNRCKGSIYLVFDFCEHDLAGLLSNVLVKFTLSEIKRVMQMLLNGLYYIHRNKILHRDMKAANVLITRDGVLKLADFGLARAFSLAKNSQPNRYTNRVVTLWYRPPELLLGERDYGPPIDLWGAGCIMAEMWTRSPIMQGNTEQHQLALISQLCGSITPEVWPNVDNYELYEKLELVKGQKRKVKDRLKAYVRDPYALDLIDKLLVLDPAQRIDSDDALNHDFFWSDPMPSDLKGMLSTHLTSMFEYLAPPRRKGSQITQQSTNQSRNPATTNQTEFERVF
Sequence of CDK9/T1 (O60563 whole entry partner): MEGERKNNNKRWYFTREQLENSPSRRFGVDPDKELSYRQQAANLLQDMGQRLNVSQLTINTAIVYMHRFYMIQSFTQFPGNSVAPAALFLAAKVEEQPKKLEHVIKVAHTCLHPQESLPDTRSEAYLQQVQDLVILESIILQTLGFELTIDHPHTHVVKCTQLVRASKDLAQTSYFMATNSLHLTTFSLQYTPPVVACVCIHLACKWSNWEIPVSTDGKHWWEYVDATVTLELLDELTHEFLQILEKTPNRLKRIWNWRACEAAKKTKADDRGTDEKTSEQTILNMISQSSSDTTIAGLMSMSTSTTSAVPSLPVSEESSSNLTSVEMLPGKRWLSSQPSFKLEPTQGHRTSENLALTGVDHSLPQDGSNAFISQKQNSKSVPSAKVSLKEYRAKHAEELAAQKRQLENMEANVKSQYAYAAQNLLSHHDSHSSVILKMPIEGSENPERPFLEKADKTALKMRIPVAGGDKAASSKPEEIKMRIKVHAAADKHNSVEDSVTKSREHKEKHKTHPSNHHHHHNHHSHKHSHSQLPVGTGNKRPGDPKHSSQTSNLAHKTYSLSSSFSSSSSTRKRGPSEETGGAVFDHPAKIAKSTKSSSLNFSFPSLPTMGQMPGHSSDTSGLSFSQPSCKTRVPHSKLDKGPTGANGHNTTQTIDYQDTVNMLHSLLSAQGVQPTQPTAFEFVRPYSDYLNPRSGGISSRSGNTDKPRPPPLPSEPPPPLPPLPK

On to `Fc1cnc(NC2CCN(CC3CCCC3)CC2)nc1-c1cnc2ccc(-c3ccccc3)cn12` [Compound 146, N-(1-(Cyclopentylmethyl)piperidin-4-yl)-5-fluoro-4-(6-phenylimidazo[1,2-a]pyridin-3-yl)pyrimidin-2-amine], for which the remaining activity at 10 µM worked out at 34% at CDK4/D1; 16% at CDKs and other kinases [1]; 34% at CDKs and other kinases [2]. Besides, the Ki on CDK9/T1 stood at 1.82 µM; at CDKs and other kinases [3] it was 0.37 µM. This molecule showed a GI50 in the test with leukemia cell lines of 0.026 ± 0.003 µM.
Turning to `CS(=O)(=O)N1CCC(Nc2ncc(F)c(-c3cnc4ccc(-c5ccccc5)cn34)n2)CC1` [Compound 147, 5-Fluoro-N-(1-(methylsulfonyl)piperidin-4-yl)-4-(6-phenylimidazo[1,2-a]pyridin-3-yl)pyrimidin-2-amine], the remaining activity at 10 µM turned out to be 70% on CDK4/D1; 54% at CDKs and other kinases [3]. The Ki on CDK9/T1 is 0.711 µM; on CDKs and other kinases [1] it was 0.334 µM; at CDKs and other kinases [2] (read-out: CDK inhibition, Ki (μM) CDK2A), 0.015 µM. The same molecule registered a GI50 in the test with leukemia cell lines of 0.62 ± 0.26 µM.
Take `CN1CCC(Nc2ncc(F)c(-c3cnc4ccc(-c5ccc(S(=O)(=O)N(C)C)cc5)cn34)n2)CC1` [Compound 148, 4-(3-(5-Fluoro-2-((1-methylpiperidin-4-yl)amino)pyrimidin-4-yl)imidazo[1,2-a]pyridin-6-yl)-N,N-dimethylbenzenesulfonamide]: the remaining activity at 10 µM came to 70% at CDK4/D1; 27% at CDKs and other kinases [1]; 46% at CDKs and other kinases [2]; 18% at CDKs and other kinases [3]. In addition, the Ki at CDK9/T1 was 0.261 µM. For the same molecule, in the test on leukemia cell lines, the GI50 stood at 0.023 ± 0.007 µM.
Turning to `CN1CCC(Nc2ncc(F)c(-c3cnc4ccc(Nc5cncnc5)cn34)n2)CC1` [Compound 149, 3-(5-Fluoro-2-((1-methylpiperidin-4-yl)amino)pyrimidin-4-yl)-N-(pyrimidin-5-yl)imidazo[1,2-a]pyridin-6-amine], the remaining activity at 10 µM amounted to 3% on CDK4/D1; 9% on CDKs and other kinases [1]; 20% on CDKs and other kinases [2]. The Ki was 0.178 µM at CDK9/T1; 0.313 µM on CDKs and other kinases [3]. For the same molecule, growth in the test on leukemia cell lines was halved (GI50) at 0.145 ± 0.001 µM.
In the case of `Cc1cnc(N[C@H]2CC[C@H](N)CC2)nc1-c1cnc2cc(C(F)(F)F)c(-c3ccccc3)cn12` [Compound 150, (1r,4r)-N1-(5-Methyl-4-(6-phenyl-7-(trifluoromethyl)imidazo[1,2-a]pyridin-3-yl)pyrimidin-2-yl)cyclohexane-1,4-diamine], the remaining activity at 10 µM at CDK4/D1 came to 21%; at CDKs and other kinases [1], 45%; on CDKs and other kinases [2], 11%. In addition, the Ki on CDK9/T1 amounted to 0.149 µM; at CDKs and other kinases [3], 0.372 µM. Also, growth in the test with leukemia cell lines was halved (GI50) at 0.42 ± 0.02 µM.
Regarding `Cc1cnc(N[C@H]2CC[C@H](C)CC2)nc1-c1cnc2ccc(-c3ccccc3)cn12` [Compound 151, 5-Methyl-N-((1r,4r)-4-methylcyclohexyl)-4-(6-phenylimidazo[1,2-a]pyridin-3-yl)pyrimidin-2-amine], the remaining activity at 10 µM at CDK4/D1 was 93%; on CDKs and other kinases [1], 96%; at CDKs and other kinases [2], 87%; at CDKs and other kinases [3] it was 94%. For the same molecule, on CDK9/T1, the Ki was above 5 µM. Moreover, the GI50 with leukemia cell lines was 8.643 ± 0.01 µM.
With `Cc1cnc(N[C@H]2CC[C@H](C)CC2)nc1-c1cnc2ccc(Nc3cncnc3)cn12` [Compound 152, 3-(5-Methyl-2-(((1r,4r)-4-methylcyclohexyl)amino)pyrimidin-4-yl)-N-(pyrimidin-5-yl)imidazo[1,2-a]pyridin-6-amine], the remaining activity at 10 µM on CDK4/D1 stood at 20%; at CDKs and other kinases [1], 34%; at CDKs and other kinases [2], 5%; on CDKs and other kinases [3], 55%. In addition, the Ki on CDK9/T1 came to 0.181 µM. Moreover, in the test with leukemia cell lines, it took 2.86 ± 0.29 µM to inhibit growth by half (GI50).
Regarding `Cc1cnc(N[C@H]2CC[C@H](NCC(N)=O)CC2)nc1-c1cnc2ccc(Nc3cncnc3)cn12` [Compound 153, 2-(((1r,4r)-4-((5-Methyl-4-(6-(pyrimidin-5-ylamino)imidazo[1,2-a]pyridin-3-yl)pyrimidin-2-yl)amino)cyclohexyl)amino)acetamide], the remaining activity at 10 µM on CDK4/D1 is 0%; on CDKs and other kinases [2], 14%; at CDKs and other kinases [3], 49%. The Ki amounted to 0.01 µM at CDK9/T1; 0.632 µM on CDKs and other kinases [1]. Besides, the GI50 in the test with leukemia cell lines was 9.32 ± 0.73 µM.
Regarding `Cc1cnc(N[C@H]2CC[C@H](N(CC(N)=O)CC(N)=O)CC2)nc1-c1cnc2ccc(Nc3cncnc3)cn12` [Compound 154, 2,2′-(((1r,4r)-4-((5-Methyl-4-(6-(pyrimidin-5-ylamino)imidazo[1,2-a]pyridin-3-yl)pyrimidin-2-yl)amino)cyclohexyl)azanediyl)diacetamide], the remaining activity at 10 µM on CDK4/D1 was 3%; at CDKs and other kinases [1] it was 14%; at CDKs and other kinases [2] it was 7%; on CDKs and other kinases [3] it was 37%. In addition, the Ki at CDK9/T1 was 0.022 µM. In addition, the GI50 in the test with leukemia cell lines was above 10 µM.
On to `Cc1cnc(NC2CCC(F)(F)CC2)nc1-c1cnc2ccc(-c3ccccc3)cn12` [Compound 155, N-(4,4-Difluorocyclohexyl)-5-methyl-4-(6-phenylimidazo [1,2-a]pyridin-3-yl)pyrimidin-2-amine], for which the remaining activity at 10 µM on CDK4/D1 amounted to 96%; at CDKs and other kinases [1], 100%; at CDKs and other kinases [2], 100%; at CDKs and other kinases [3], 99%. Further, the inhibition constant (Ki) on CDK9/T1 was above 5 µM. Further, in the test on leukemia cell lines, the GI50 was 7 ± 2.03 µM.
As to `Cc1cnc(NC2CCC(F)(F)CC2)nc1-c1cnc2ccccn12` [Compound 156, N-(4,4-Difluorocyclohexyl)-4-(imidazo[1,2-a]pyridin-3-yl)-5-methylpyrimidin-2-amine], the remaining activity at 10 µM at CDK4/D1 stood at 51%; on CDKs and other kinases [1], 77%; at CDKs and other kinases [2] it was 34%; at CDKs and other kinases [3], 80%. Also, the Ki at CDK9/T1 is above 5 µM. The molecule further displayed a GI50 in the test with leukemia cell lines of 3.3 ± 0.31 µM.
`COC(=O)[C@H]1CC[C@H](Nc2ncc(C)c(-c3cnc4ccc(Nc5cncnc5)cn34)n2)CC1` [Compound 157, Methyl (1r,4r)-4-((5-methyl-4-(6-(pyrimidin-5-ylamino)imidazo[1,2-a]pyridin-3-yl)pyrimidin-2-yl)amino) cyclohexane-1-carboxylate]: the remaining activity at 10 µM at CDK4/D1 turned out to be 32%; at CDKs and other kinases [1], 69%; at CDKs and other kinases [2] it was 38%; on CDKs and other kinases [3], 90%. Moreover, at CDK9/T1, the Ki was found to be 0.527 µM. For the same molecule, in the test on leukemia cell lines, the GI50 came out at 2.4 ± 0.09 µM.
As for `Cc1cnc(N[C@H]2CC[C@H](C(=O)O)CC2)nc1-c1cnc2ccc(Nc3cncnc3)cn12` [Compound 158, (1r,4r)-4-((5-Methyl-4-(6-(pyrimidin-5-ylamino)imidazo [1,2-a]pyridin-3-yl)pyrimidin-2-yl)amino)cyclohexane-1-carboxylic acid], the remaining activity at 10 µM at CDK4/D1 was 92%; at CDKs and other kinases [1], 94%; at CDKs and other kinases [2], 85%; at CDKs and other kinases [3] it was 98%. Also, the Ki at CDK9/T1 stood at 0.185 µM. Besides, the GI50 in the test with leukemia cell lines was above 10 µM.
